Experimental findings from patent US20250179047A1, “5-[7-(3,4-DIHYDRO-1H-ISOQUINOLINE-2-CARBONYL)-1,2,3,4 TETRAHYDROISOQUINOLIN-6-YL]-1H-PYRROLE-3-CARBOXAMIDE DERIVATIVES, PHARMACEUTICAL COMPOSITIONS CONTAINING THEM AND THEIR USES AS PRO-APOPTOTIC AGENTS” (LES LABORATOIRES SERVIER, priority 2022, published 2025) are described below.

One data set has as its target BCL2 WT (Homo sapiens (Human), UniProt P10415). Description: TR-FRET competitive binding assay, BCL2 WT. The following applies: Ki determined from IC50, read-out: TR_FRET EKI_Bcl2 WT. An outline of the steps:
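Terbium-labelled N-terminal Halo-fusion BCL2 or BCLXL (E. coli), 0.5 nM, competed against fluorescein-labelled PUMA peptide (2 or 20 nM) for 2 h at 23° C in 50 mM Hepes pH 7.5, 150 mM NaCl, 5% DMSO. TR-FRET 520/495 nm ratio gave IC50 by four-parameter fit; Ki derived from IC50.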

A further data set deals with platelets. Description: Platelet depletion in SCID mice. The note with it: 25 mg/kg IV bolus, vs control group; for Platelet loss (%) 6 h: 6 h after dosing; for Platelet loss (%) 24 h: 24 h after dosing. Type of data set: in vivo. On the procedure:
(§1) Pharmacokinetic (PK) and platelet toxicity were investigated in SCID mice. Compounds were administered at 25 mg/kg by IV bolus, and formulated in PEG/Ethanol/NaCl 0.9% (40/10/50 v/v/v).
(§2) Blood samples (3 animals/time point and 3 time points/animal) were collected over 24 h after dosing: 0.05 h, 0.5 h, 1 h, 3 h, 6 h and 24 h for PK and 6 h and 24 h for platelets.
(§3) PK samples were analyzed by liquid chromatography using tandem mass spectrometry detection (LC-MS/MS) and platelet count (109/L) was measured using an hematology analyzer. Percentage of platelet loss was calculated at both time points (T+6 h and 24 h) as compared to a control group of 6 animals. PK parameters (Cinf and AUC24, which correspond to the concentration at the end of bolus administration and the area under curve over 24 h, respectively) were also determined using a non-compartmental analysis.

Data set [1] can be described thus: Pharmacokinetics in SCID mice. The note with it: 25 mg/kg IV bolus; for PK parameters Cinf: concentration at the end of bolus administration; for AUC: mouse, blood, area under curve over 24 h, read-out: PK parameters AUC24. It is filed as in vivo. How it is done: as §1, §2, §3
In another data set the target is CYP3A4 (Homo sapiens (Human), UniProt P08684). As to the kind of experiment: CYP3A4 inhibition determination in hepatic human microsomes. Type of data set: in vitro ADME. The note with it: LC/MS-MS of specific metabolite. How it is done:
The inhibitory potential was determined on CYP3 Å4 enzyme using hepatic human microsomes. A range of concentrations (adapted based on the solubility) of the tested compound were incubated in presence of a substrate having a specific metabolite of CYP3 Å4 enzyme.
Then, the formation of the metabolite was quantified using LC/MS-MS analysis and a curve corresponding to the concentration of the metabolite in function of the concentration of the test compound allowed to the calculation of the IC50 value.

CYP3A4, sequence (P08684 whole entry): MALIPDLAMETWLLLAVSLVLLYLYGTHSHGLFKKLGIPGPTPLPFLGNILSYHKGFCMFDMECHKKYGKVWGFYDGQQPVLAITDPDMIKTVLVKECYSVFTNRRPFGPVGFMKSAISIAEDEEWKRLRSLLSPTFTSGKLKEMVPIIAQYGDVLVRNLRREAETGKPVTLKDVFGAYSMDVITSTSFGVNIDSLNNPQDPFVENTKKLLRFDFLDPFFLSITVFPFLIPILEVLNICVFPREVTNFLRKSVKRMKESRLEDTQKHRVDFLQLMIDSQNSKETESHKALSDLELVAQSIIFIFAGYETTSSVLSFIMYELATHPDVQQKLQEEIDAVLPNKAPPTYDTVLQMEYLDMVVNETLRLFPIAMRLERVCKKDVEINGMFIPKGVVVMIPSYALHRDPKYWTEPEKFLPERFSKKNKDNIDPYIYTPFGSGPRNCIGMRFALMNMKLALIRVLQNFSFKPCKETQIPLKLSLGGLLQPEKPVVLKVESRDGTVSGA
BCL2 WT, sequence (P10415 other isoform, or with tags, fused parts or gaps): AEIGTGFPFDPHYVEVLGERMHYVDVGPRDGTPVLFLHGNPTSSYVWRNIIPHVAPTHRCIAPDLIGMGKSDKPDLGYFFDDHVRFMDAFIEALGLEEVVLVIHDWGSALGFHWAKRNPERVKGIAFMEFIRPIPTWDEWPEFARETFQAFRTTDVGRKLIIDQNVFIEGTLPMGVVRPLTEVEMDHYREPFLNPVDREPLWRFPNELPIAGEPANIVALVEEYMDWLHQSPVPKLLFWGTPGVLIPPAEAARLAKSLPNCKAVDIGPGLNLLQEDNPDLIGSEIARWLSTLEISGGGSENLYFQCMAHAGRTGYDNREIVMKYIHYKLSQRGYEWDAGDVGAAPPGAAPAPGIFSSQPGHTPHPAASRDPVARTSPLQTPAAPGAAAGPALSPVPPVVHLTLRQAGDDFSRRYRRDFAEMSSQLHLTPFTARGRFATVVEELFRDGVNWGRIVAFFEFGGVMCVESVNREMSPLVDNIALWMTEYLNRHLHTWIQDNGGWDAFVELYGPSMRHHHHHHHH

Turning to `Cc1c(N(C(=O)c2cc(-c3cc4c(cc3C(=O)N3Cc5ccccc5C[C@H]3C)CN(C(=O)Cc3ccc(N5CCN6CCOC[C@@H]6C5)cc3F)CC4)n(C)c2C)c2ccc(O)cc2)cc(C#N)n1C` [Example 45, 5-[2-(2-{4-[(9aS)-octahydropyrazino[2,1-c][1,4]oxazin-8-yl]-2-fluorophenyl}acetyl)-7-[(3R)-3-methyl-1,2,3,4-tetrahydroisoquinoline-2-carbonyl]-1,2,3,4-tetrahydroisoquinolin-6-yl]-N-(5-cyano-1,2-dimethyl-1H-pyrrol-3-yl)-N-(4-hydroxyphenyl)-1,2-dimethyl-1H-pyrrole-3-carboxamide], at BCL2 WT, the Ki came out at 0.08 nM. For the same compound, in the data set with platelets, the “Platelet loss (%) 6 h” value is reported as 22.0% and the “Platelet loss (%) 24 h” value is recorded as 27.6%. In addition, in data set [1], the “PK parameters Cinf” value is 40.8 µM and the AUC was determined as 34.2 µM·h.

For `COC[C@@H]1Cc2ccccc2CN1C(=O)c1cc2c(cc1-c1cc(C(=O)N(c3ccc(O)cc3)c3cc(C#N)n(C)c3C)c(C)n1C)CCN(C(=O)Cc1ccc(OCCC3CCOCC3)cc1F)C2` [Example 52, N-(5-cyano-1,2-dimethylpyrrol-3-yl)-5-[2-(2-{2-fluoro-4-[2-(oxan-4-yl)ethoxy]phenyl}acetyl)-7-{[(3S)-3-(methoxymethyl)-3,4-dihydro-1H-isoquinolin-2-yl]carbonyl}-3,4-dihydro-1H-isoquinolin-6-yl]-N-(4-hydroxyphenyl)-1,2-dimethylpyrrole-3-carboxamide], the Ki at BCL2 WT amounted to 0.2 nM. Also, in the data set with platelets, the “Platelet loss (%) 6 h” value is recorded as 34.3% and the “Platelet loss (%) 24 h” value was determined as 33.0%. Also, in data set [1], the “PK parameters Cinf” value was 18.0 µM and the AUC turned out to be 33.7 µM·h.

Regarding `Cc1c(N(C(=O)c2cc(-c3cc4c(cc3C(=O)N3Cc5ccccc5C[C@H]3CN3CCCCC3)CN(C(=O)Cc3ccc(OCCN5CCOCC5)cc3F)CC4)n(C)c2C)c2ccc(O)cc2)cc(C#N)n1C` [Example 43, N-(5-cyano-1,2-dimethylpyrrol-3-yl)-5-[2-(2-{2-fluoro-4-[2-(morpholin-4-yl)ethoxy]phenyl}acetyl)-7-{[(3S)-3-(piperidin-1-ylmethyl)-3,4-dihydro-1H-isoquinolin-2-yl]carbonyl}-3,4-dihydro-1H-isoquinolin-6-yl]-N-(4-hydroxyphenyl)-1,2-dimethylpyrrole-3-carboxamide], the Ki at BCL2 WT was found to be 0.04 nM. Moreover, in the data set on platelets, the “Platelet loss (%) 6 h” value came to 25.3% and the “Platelet loss (%) 24 h” value is listed as 9.2%. For the same compound, in data set [1], the “PK parameters Cinf” value came out at 15.4 µM and the AUC was determined as 16.9 µM·h.

In the case of `Cc1c(C(=O)N(c2ccc(O)cc2)c2cc(C#N)n(C(F)F)c2C)cc(-c2cc3c(cc2C(=O)N2Cc4ccccc4C[C@H]2CN2CCCCC2)CN(C(=O)Cc2ccc(OCCN4CCOCC4)cc2)CC3)n1C` [Example 77], the Ki on BCL2 WT came to 0.06 nM. Further, the IC50 at CYP3A4 is > 5000 nM.

Turning to `Cc1c(N(C(=O)c2cc(-c3cc4c(cc3C(=O)N3Cc5ccccc5C[C@H]3C)CN(C(=O)Cc3ccc(CCN5CCC(F)(F)CC5)cc3)CC4)n(C)c2C)c2ccc(O)cc2)cc(C#N)n1C` [Example 51, N-(5-cyano-1,2-dimethylpyrrol-3-yl)-5-[2-(2-{4-[2-(4,4-difluoropiperidin-1-yl)ethyl]phenyl}acetyl)-7-{[(3R)-3-methyl-3,4-dihydro-1H-isoquinolin-2-yl]carbonyl}-3,4-dihydro-1H-isoquinolin-6-yl]-N-(4-hydroxyphenyl)-1,2-dimethylpyrrole-3-carboxamide], on BCL2 WT, the Ki came to 0.22 nM.

For `Cc1c(N(C(=O)c2cc(-c3cc4c(cc3C(=O)N3Cc5ccccc5C[C@H]3C)CN(C(=O)Cc3ccc(OCCN5CCOCC5)cc3)CC4)n(C)c2C)c2ccc(O)cc2)cc(C#N)n1C` [Example 21, N-(5-cyano-1,2-dimethyl-1H-pyrrol-3-yl)-N-(4-hydroxyphenyl)-1,2-dimethyl-5-{7-[(3R)-3-methyl-1,2,3,4-tetrahydroisoquinoline-2-carbonyl]-2-(2-{4-[2-(morpholin-4-yl)ethoxy]phenyl}acetyl)-1,2,3,4-tetrahydroisoquinolin-6-yl}-1H-pyrrole-3-carboxamide], at BCL2 WT, the Ki was determined as 0.11 nM. Besides, in the data set with platelets, the “Platelet loss (%) 6 h” value is given as 58.4% and the “Platelet loss (%) 24 h” value is on record as 30.3%. Moreover, in data set [1], the “PK parameters Cinf” value was found to be 21.0 µM and the AUC was determined as 12 µM·h. At CYP3A4, the IC50 was found to be 6200 nM.

Take `Cc1c(C(=O)N(c2ccc(O)cc2)c2cc(C#N)n(C(F)F)c2C)cc(-c2cc3c(cc2C(=O)N2Cc4ccccc4C[C@H]2CN2CCCCC2)CN(C(=O)Cc2ccc(OCCN4CCOCC4)cc2F)CC3)n1C` [Example 78, N-[5-cyano-1-(difluoromethyl)-2-methylpyrrol-3-yl]-5-[2-(2-{2-fluoro-4-[2-(morpholin-4-yl)ethoxy]phenyl}acetyl)-7-{[(3S)-3-(piperidin-1-ylmethyl)-3,4-dihydro-1H-isoquinolin-2-yl]carbonyl}-3,4-dihydro-1H-isoquinolin-6-yl]-N-(4-hydroxyphenyl)-1,2-dimethylpyrrole-3-carboxamide]: on BCL2 WT, the Ki is 0.05 nM. Further, at CYP3A4, the IC50 was > 5000 nM.

For `Cc1c(N(C(=O)c2cc(-c3cc4c(cc3C(=O)N3Cc5ccccc5C[C@H]3CN3CCC[C@H](C)C3)CN(C(=O)Cc3ccc(OCCN5CCOCC5)cc3F)CC4)n(C)c2C)c2ccc(O)cc2)cc(C#N)n1C` [Example 107], the Ki on BCL2 WT is 0.09 nM.

As for `Cc1c(N(C(=O)c2cc(-c3cc4c(cc3C(=O)N3Cc5ccccc5C[C@H]3C)CN(C(=O)Cc3ccc(OCCN5CCC(F)CC5)cc3)CC4)n(C)c2C)c2ccc(O)cc2)cc(C#N)n1C` [Example 53, N-(5-cyano-1,2-dimethyl-1H-pyrrol-3-yl)-5-[2-(2-{4-[2-(4-fluoropiperidin-1-yl)ethoxy]phenyl}acetyl)-7-[(3R)-3-methyl-1,2,3,4-tetrahydroisoquinoline-2-carbonyl]-1,2,3,4-tetrahydroisoquinolin-6-yl]-N-(4-hydroxyphenyl)-1,2-dimethyl-1H-pyrrole-3-carboxamide], the Ki on BCL2 WT was determined as 0.07 nM.

Consider `Cc1c(N(C(=O)c2cc(-c3cc4c(cc3C(=O)N3Cc5ccccc5C[C@H]3C)CN(C(=O)Cc3ccc(OCCC5CCOCC5)cc3)CC4)n(C)c2C)c2ccc(O)cc2)cc(C#N)n1C` [Example 27, N-(5-cyano-1,2-dimethyl-1H-pyrrol-3-yl)-N-(4-hydroxyphenyl)-1,2-dimethyl-5-{7-[(3R)-3-methyl-1,2,3,4-tetrahydroisoquinoline-2-carbonyl]-2-(2-{4-[2-(oxan-4-yl)ethoxy]phenyl}acetyl)-1,2,3,4-tetrahydroisoquinolin-6-yl}-1H-pyrrole-3-carboxamide], for which, on BCL2 WT, the Ki was 0.8 nM. Further, in the data set with platelets, the “Platelet loss (%) 6 h” value is listed as 18.6% and the “Platelet loss (%) 24 h” value worked out at 11.0%. Also, in data set [1], the “PK parameters Cinf” value was 12.2 µM and the AUC is 19.5 µM·h.

As to `Cc1c(N(C(=O)c2cc(-c3cc4c(cc3C(=O)N3Cc5ccccc5C[C@H]3CN3CCCCC3)CN(C(=O)Cc3ccc(OCCC5CCOCC5)cc3)CC4)n(C)c2C)c2ccc(O)cc2)cc(C#N)n1C` [Example 66, N-(5-cyano-1,2-dimethylpyrrol-3-yl)-N-(4-hydroxyphenyl)-1,2-dimethyl-5-[2-(2-{4-[2-(oxan-4-yl)ethoxy]phenyl}acetyl)-7-{[(3S)-3-(piperidin-1-ylmethyl)-3,4-dihydro-1H-isoquinolin-2-yl]carbonyl}-3,4-dihydro-1H-isoquinolin-6-yl]pyrrole-3-carboxamide], the Ki at BCL2 WT was 0.08 nM.

On to `Cc1c(N(C(=O)c2cc(-c3cc4c(cc3C(=O)N3Cc5ccccc5C[C@H]3C)CN(C(=O)Cc3ccc(OCCN5CCSCC5)cc3)CC4)n(C)c2C)c2ccc(O)cc2)cc(C#N)n1C` [Example 55, N-(5-cyano-1,2-dimethyl-1H-pyrrol-3-yl)-N-(4-hydroxyphenyl)-1,2-dimethyl-5-{7-[(3R)-3-methyl-1,2,3,4-tetrahydroisoquinoline-2-carbonyl]-2-(2-{4-[2-(thiomorpholin-4-yl)ethoxy]phenyl}acetyl)-1,2,3,4-tetrahydroisoquinolin-6-yl}-1H-pyrrole-3-carboxamide], for which the Ki at BCL2 WT amounted to 0.1 nM. In addition, in the data set on platelets, the “Platelet loss (%) 6 h” value is reported as 26.9% and the “Platelet loss (%) 24 h” value is on record as 33.9%. Besides, in data set [1], the “PK parameters Cinf” value was 17.3 µM and the AUC was 11.4 µM·h.
